Assay type in all cases: toxicity, cell-based
One series relates to HEK-293T. In words: Incucyte cell viability with HEK293T. To be noted: human, 10 µM, compound concentration 10 uM.
For a further series, the system named is Fibroblast. In words: Incucyte cell viability with human fibroblast. The note with it: 10 µM, compound concentration 10 uM.
In the next series the test system is U2OS. In words: Incucyte cell viability with U2OS. The note with it: human, 10 µM, compound concentration 10 uM.

“And” between values parts separate entries of the source, which are not always exact repeats. Equal values may be shown once.

The text below walks through data of ChEMBL document CHEMBL5303304, “EUbOPEN Chemogenomics Library - IncuCyte” (2023).
Note: unitless GR value; below 1 slowed growth and below 0 cell loss.

For the compound `O=C(Nc1cc(C(F)(F)F)ccc1N1CCCCC1)c1ccncc1`, the “Growth Rate” value in the series on HEK-293T (6 h, replicate number 2) is listed as 0.49; with Fibroblast (0 h, replicate number 2), -0.43; with Fibroblast (6 h, replicate number 2), 0.12; with Fibroblast (12 h, replicate number 2), 0.6; in the series with Fibroblast (18 h, replicate number 2), 0.93; in the series with Fibroblast (24 h, replicate number 2), 0.9. Besides, the “Growth Rate” value in the series on U2OS (0 h, replicate number 1) is reported as 0.2; with U2OS (6 h, replicate number 2) it was 0.58.

With `FC(F)(F)c1ccc(CNc2ccc(Cc3c[nH]c4ncc(Cl)cc34)cn2)cn1` [PEXIDARTINIB], the “Growth Rate” value is listed as -0.38 in the series on HEK-293T (0 h, replicate number 2); -1 with Fibroblast (0 h, replicate number 1); 0.64 with Fibroblast (6 h, replicate number 1); 0.13 in the series on Fibroblast (6 h, replicate number 2); 0.87 in the series on Fibroblast (12 h, replicate number 1); 0.34 in the series with Fibroblast (12 h, replicate number 2). Further, the “Growth Rate” value in the series with Fibroblast (18 h, replicate number 2) turned out to be 0.9; in the series with U2OS (24 h, replicate number 1), 0.95; with U2OS (24 h, replicate number 2), 0.98.

As for `CC(C)NC(=O)[C@H]1CCC[C@H]1Nc1nc(Nc2ccc(C(=O)N(C)C3CCN(C)CC3)cc2)ncc1Cl`, the “Growth Rate” value is -1 with HEK-293T (0 h, replicate number 2); 0.62 and 0.41 with HEK-293T (12 h, replicate number 1); 0.71 and 0.79 with HEK-293T (18 h, replicate number 1); 0.56 in the series on HEK-293T (18 h, replicate number 2); 0.85 in the series with HEK-293T (24 h, replicate number 1); 0.69 and 0.88 with HEK-293T (24 h, replicate number 2). For the same compound, the “Growth Rate” value with Fibroblast (0 h, replicate number 1) was -1; in the series with Fibroblast (6 h, replicate number 2), -0.29; with Fibroblast (12 h, replicate number 1), 0.11 and 0.25; in the series with Fibroblast (18 h, replicate number 1), 0.31 and 0.66; with Fibroblast (18 h, replicate number 2) it was 0.24 and 0.59; in the series with Fibroblast (24 h, replicate number 1), 0.54. For the same compound, the “Growth Rate” value with Fibroblast (24 h, replicate number 2) is 0.47; in the series with U2OS (0 h, replicate number 1), 0.59; in the series with U2OS (0 h, replicate number 2) it was 0.92; with U2OS (6 h, replicate number 2), 0.48; in the series on U2OS (12 h, replicate number 2) it was 0.53 and 0.52; with U2OS (18 h, replicate number 1) it was 0.54 and 0.76. For the same compound, the “Growth Rate” value in the series on U2OS (18 h, replicate number 2) is 0.6 and 0.8; in the series with U2OS (24 h, replicate number 1) it was 0.63; in the series on U2OS (24 h, replicate number 2), 0.61 and 0.9.

On to `COc1cc(-c2cn(C)c(=O)c3cnccc23)c(OC)cc1CN(C)C`, for which the “Growth Rate” value in the series on HEK-293T (0 h, replicate number 1) is reported as 0.44; in the series on HEK-293T (6 h, replicate number 2), 0.24; in the series with HEK-293T (12 h, replicate number 2), 0.4; in the series on HEK-293T (18 h, replicate number 1), 0.77; with HEK-293T (18 h, replicate number 2) it was 0.68; in the series with HEK-293T (24 h, replicate number 1), 0.68. Moreover, the “Growth Rate” value stood at 0.77 in the series on HEK-293T (24 h, replicate number 2); 0.79 in the series with Fibroblast (6 h, replicate number 1); 0.69 with Fibroblast (6 h, replicate number 2); 0.84 with Fibroblast (12 h, replicate number 1); 0.23 in the series on Fibroblast (12 h, replicate number 2); 0.8 with Fibroblast (18 h, replicate number 1). Further, the “Growth Rate” value in the series on Fibroblast (18 h, replicate number 2) worked out at 0.53; in the series on Fibroblast (24 h, replicate number 1) it was 0.8; in the series with Fibroblast (24 h, replicate number 2) it was 0.5; with U2OS (0 h, replicate number 1) it was 0.29; in the series on U2OS (6 h, replicate number 1), 0.38; in the series with U2OS (12 h, replicate number 1), 0.8. Further, the “Growth Rate” value in the series on U2OS (24 h, replicate number 1) was found to be 0.97.

Turning to `COC(=O)c1ccc2c(c1)NC(=O)/C2=C(\Nc1ccc(-c2nccn2C)cc1)c1ccccc1`, the “Growth Rate” value in the series on HEK-293T (6 h, replicate number 1) is -0.53; in the series with HEK-293T (6 h, replicate number 2) it was -0.73; with HEK-293T (12 h, replicate number 1) it was -0.37; in the series with HEK-293T (12 h, replicate number 2), -0.51; in the series on HEK-293T (18 h, replicate number 1), -0.26; in the series with HEK-293T (18 h, replicate number 2) it was -0.37. The “Growth Rate” value in the series on HEK-293T (24 h, replicate number 1) was -0.09; in the series with HEK-293T (24 h, replicate number 2) it was -0.27; in the series on Fibroblast (0 h, replicate number 1), -1; in the series with U2OS (0 h, replicate number 1), -1; in the series on U2OS (6 h, replicate number 1) it was 0.57; with U2OS (6 h, replicate number 2), 0.77. The “Growth Rate” value in the series on U2OS (12 h, replicate number 1) is 0.53; in the series on U2OS (12 h, replicate number 2) it was 0.61; in the series on U2OS (18 h, replicate number 1), 0.46; in the series on U2OS (18 h, replicate number 2), 0.62; in the series with U2OS (24 h, replicate number 1) it was -0.6; with U2OS (24 h, replicate number 2) it was 0.46.

Take `C[S+]([O-])c1ccc(-c2nc(-c3cccc(I)c3)c(-c3ccncc3)[nH]2)cc1` (stereo unspecified): the “Growth Rate” value is given as -0.57 in the series with HEK-293T (0 h, replicate number 1); -1 with HEK-293T (0 h, replicate number 2); 0.87 with HEK-293T (12 h, replicate number 1); 0.99 with HEK-293T (18 h, replicate number 1); 0.99 in the series on HEK-293T (24 h, replicate number 1); 0.66 in the series with Fibroblast (6 h, replicate number 2). Further, the “Growth Rate” value in the series on U2OS (0 h, replicate number 1) is reported as -0.99; in the series on U2OS (6 h, replicate number 2) it was 0.79; with U2OS (12 h, replicate number 2), 0.8; in the series on U2OS (18 h, replicate number 1), 0.97; in the series on U2OS (18 h, replicate number 2), 0.75; with U2OS (24 h, replicate number 1), 1. The “Growth Rate” value in the series on U2OS (24 h, replicate number 2) came to 0.65.

On to `CC[C@@H](C(=O)OC)n1c(=O)c2ccccc2n(Cc2cn(C)c3cccc(C)c23)c1=O`, for which the “Growth Rate” value in the series on HEK-293T (0 h, replicate number 2) was -0.42; in the series on Fibroblast (0 h, replicate number 1) it was -1; in the series with Fibroblast (6 h, replicate number 1), 0.75; in the series with Fibroblast (6 h, replicate number 2), -0.9; with Fibroblast (12 h, replicate number 1), 1; with Fibroblast (12 h, replicate number 2), 0.49. The “Growth Rate” value in the series on Fibroblast (18 h, replicate number 1) came to 0.75; in the series with Fibroblast (18 h, replicate number 2) it was 0.48; in the series with U2OS (0 h, replicate number 2) it was 0.16; in the series on U2OS (12 h, replicate number 2) it was 0.97; with U2OS (18 h, replicate number 2) it was 0.96; with U2OS (24 h, replicate number 1), 0.92. For the same compound, in the series with U2OS (24 h, replicate number 2), the “Growth Rate” value is on record as 0.9.

On to `CCc1nc(-c2cccc(C)c2)c(-c2ccncc2)s1`, for which the “Growth Rate” value in the series on HEK-293T (0 h, replicate number 1) is -0.67; with HEK-293T (6 h, replicate number 2), 0.9; in the series on HEK-293T (18 h, replicate number 1), 0.99; in the series on Fibroblast (0 h, replicate number 1) it was -0.98; in the series with Fibroblast (0 h, replicate number 2) it was 0.64; with Fibroblast (6 h, replicate number 2), 1. Besides, the “Growth Rate” value in the series on Fibroblast (12 h, replicate number 1) came out at 0.95; in the series on U2OS (0 h, replicate number 2), 0.65; in the series with U2OS (6 h, replicate number 2) it was 0.83.

Consider `C[C@@H]1Cc2c([nH]c3ccccc23)[C@@H](c2c(F)cc(/C=C/C(=O)O)cc2F)N1CC(C)(C)F` [AZD-9496], for which the “Growth Rate” value was -0.59 with HEK-293T (0 h, replicate number 1); -0.31 in the series on HEK-293T (0 h, replicate number 2); -0.38 in the series with Fibroblast (6 h, replicate number 2); 0.62 in the series on Fibroblast (12 h, replicate number 2); 0.88 with Fibroblast (18 h, replicate number 2); 0.65 with Fibroblast (24 h, replicate number 2). The “Growth Rate” value in the series on U2OS (0 h, replicate number 1) was 0.01; with U2OS (6 h, replicate number 1), 0.39; in the series on U2OS (12 h, replicate number 1) it was 0.94; in the series on U2OS (18 h, replicate number 1), 0.92; in the series on U2OS (24 h, replicate number 1), 0.91.

For the compound `S=c1[nH]nc(-c2cccs2)n1-c1ccccc1`, the “Growth Rate” value with HEK-293T (0 h, replicate number 2) came out at 0.81; in the series on HEK-293T (6 h, replicate number 1), 0.53; in the series on HEK-293T (6 h, replicate number 2), 0.97; in the series on HEK-293T (12 h, replicate number 1) it was 0.58; with HEK-293T (12 h, replicate number 2), 0.73; in the series with HEK-293T (18 h, replicate number 1), 0.91. Further, the “Growth Rate” value in the series with HEK-293T (18 h, replicate number 2) is recorded as 0.87; with HEK-293T (24 h, replicate number 1), 0.9; in the series with HEK-293T (24 h, replicate number 2) it was 0.83; in the series on Fibroblast (0 h, replicate number 1) it was 0.04; in the series with Fibroblast (0 h, replicate number 2), -0.79; with Fibroblast (6 h, replicate number 2), -0.3. Besides, the “Growth Rate” value with Fibroblast (12 h, replicate number 1) is -0.72; in the series on Fibroblast (18 h, replicate number 1), -0.25; in the series on Fibroblast (24 h, replicate number 1) it was 0.01; with U2OS (0 h, replicate number 1), 0.53; in the series on U2OS (6 h, replicate number 2) it was 0.93; with U2OS (12 h, replicate number 2), 0.8. The “Growth Rate” value in the series with U2OS (18 h, replicate number 1) stood at 0.95; in the series with U2OS (18 h, replicate number 2), 0.87.
